Data taken from ChEMBL document CHEMBL3885881, “DrugMatrix”.

Organism: Rattus norvegicus
Assay: DrugMatrix - Regimen: Daily Repeat
Assay type: toxicity, organism-based, Sprague-Dawley
Parameters: regimen Daily Repeat, gender Male, age 6-8 weeks
Conditions: in vivo, po, route oral GAVAGE, vehicle .5 % CMC; for ABSOLUTE BASOPHIL / ABSOLUTE EOSINOPHIL / ABSOLUTE LYMPHOCYTE / ABSOLUTE MONOCYTE / ABSOLUTE SEGMENTED NEUTROPHIL / BASOPHIL / EOSINOPHIL / ERYTHROCYTE COUNT / HEMATOCRIT / HEMOGLOBIN / LEUKOCYTE COUNT / LYMPHOCYTE / MEAN CORPUSCULAR HEMOGLOBIN / MEAN CORPUSCULAR HEMOGLOBIN CONCENTRATION / MEAN CORPUSCULAR VOLUME / MONOCYTE / NEUTROPHIL / NUCLEATED RED BLOOD CELLS / PLATELET COUNT: tissue Blood; for ALANINE AMINOTRANSFERASE / ALBUMIN / ALKALINE PHOSPHATASE / ASPARTATE AMINOTRANSFERASE / BLOOD UREA NITROGEN / CARBON DIOXIDE / CHLORIDE / CHOLESTEROL / CREATINE PHOSPHOKINASE / CREATININE / GLUCOSE / LACTATE DEHYDROGENASE / LIPASE / PHOSPHORUS / POTASSIUM / SODIUM / TOTAL BILIRUBIN / TOTAL PROTEIN / URIC ACID: tissue Plasma
[1] = 100 mg/kg, 120 h, dose level Low, time 5 day
[2] = 2000 mg/kg, 72 h, dose level High, time 3 day
[3] = 2000 mg/kg, 120 h, dose level High, time 5 day

SMILES: CN/C(=N/CCSCc1nc[nH]c1C)NC#N [CIMETIDINE]
- ABSOLUTE BASOPHIL [1]: 0 CELLS/uL
- ABSOLUTE EOSINOPHIL [1]: 36.33 CELLS/uL
- ABSOLUTE LYMPHOCYTE [1]: 10440.33 CELLS/uL
- ABSOLUTE MONOCYTE [1]: 206 CELLS/uL
- ABSOLUTE SEGMENTED NEUTROPHIL [1]: 1017.33 CELLS/uL
- BASOPHIL [1]: 0%
- EOSINOPHIL [1]: 0.33%
- ERYTHROCYTE COUNT [1]: 5.58 x10E6/uL
- HEMATOCRIT [1]: 34.03%
- HEMOGLOBIN [1]: 13.43 G/DL
- LEUKOCYTE COUNT [1]: 11.7 x10E3/uL
- LYMPHOCYTE [1]: 89.33%
- MEAN CORPUSCULAR HEMOGLOBIN [1]: 24.07 pg
- MEAN CORPUSCULAR HEMOGLOBIN CONCENTRATION [1]: 39.47 G/DL
- MEAN CORPUSCULAR VOLUME [1]: 61 fL
- MONOCYTE [1]: 1.67%
- NEUTROPHIL [1]: 8.67%
- NUCLEATED RED BLOOD CELLS [1]: 0 /100WBC
- PLATELET COUNT [1]: 685.33 x10E3/uL
- ALANINE AMINOTRANSFERASE [1]: 61.33 u/L
- ALBUMIN [1]: 4.23 G/DL
- ALKALINE PHOSPHATASE [1]: 391.33 u/L
- ASPARTATE AMINOTRANSFERASE [1]: 101.67 u/L
- BLOOD UREA NITROGEN [1]: 15.33 mg/dL
- CARBON DIOXIDE [1]: 28 mmol/L
- CHLORIDE [1]: 101 MEQ/L
- CHOLESTEROL [1]: 69 mg/dL
- CREATINE PHOSPHOKINASE [1]: 711.67 u/L
- CREATININE [1]: 0.18 mg/dL
- GLUCOSE [1]: 163 mg/dL
- LACTATE DEHYDROGENASE [1]: 293 u/L
- LIPASE [1]: 10.33 u/L
- PHOSPHORUS [1]: 11.6 mg/dL
- POTASSIUM [1]: 6.16 MEQ/L
- SODIUM [1]: 141.5 MEQ/L
- TOTAL BILIRUBIN [1]: 0.2 mg/dL
- TOTAL PROTEIN [1]: 5.97 G/DL
- URIC ACID [1]: 1.67 mg/dL
- ABSOLUTE BASOPHIL [2]: 0 CELLS/uL
- ABSOLUTE EOSINOPHIL [2]: 50 CELLS/uL
- ABSOLUTE LYMPHOCYTE [2]: 13681 CELLS/uL
- ABSOLUTE MONOCYTE [2]: 50 CELLS/uL
- ABSOLUTE SEGMENTED NEUTROPHIL [2]: 2252.33 CELLS/uL
- BASOPHIL [2]: 0%
- EOSINOPHIL [2]: 0.33%
- ERYTHROCYTE COUNT [2]: 5.85 x10E6/uL
- HEMATOCRIT [2]: 36.93%
- HEMOGLOBIN [2]: 14.33 G/DL
- LEUKOCYTE COUNT [2]: 16.03 x10E3/uL
- LYMPHOCYTE [2]: 84.33%
- MEAN CORPUSCULAR HEMOGLOBIN [2]: 24.5 pg
- MEAN CORPUSCULAR HEMOGLOBIN CONCENTRATION [2]: 38.8 G/DL
- MEAN CORPUSCULAR VOLUME [2]: 63.17 fL
- MONOCYTE [2]: 0.33%
- NEUTROPHIL [2]: 15%
- NUCLEATED RED BLOOD CELLS [2]: 0.33 /100WBC
- PLATELET COUNT [2]: 1342.33 x10E3/uL
- ALANINE AMINOTRANSFERASE [2]: 56 u/L
- ALBUMIN [2]: 4.13 G/DL
- ALKALINE PHOSPHATASE [2]: 392.67 u/L
- ASPARTATE AMINOTRANSFERASE [2]: 83.33 u/L
- BLOOD UREA NITROGEN [2]: 18 mg/dL
- CARBON DIOXIDE [2]: 32.33 mmol/L
- CHLORIDE [2]: 98.33 MEQ/L
- CHOLESTEROL [2]: 86.67 mg/dL
- CREATINE PHOSPHOKINASE [2]: 295 u/L
- CREATININE [2]: 0.24 mg/dL
- GLUCOSE [2]: 145.67 mg/dL
- LACTATE DEHYDROGENASE [2]: 334.33 u/L
- LIPASE [2]: 17 u/L
- PHOSPHORUS [2]: 11.87 mg/dL
- POTASSIUM [2]: 7.13 MEQ/L
- SODIUM [2]: 141.97 MEQ/L
- TOTAL BILIRUBIN [2]: 0.17 mg/dL
- TOTAL PROTEIN [2]: 5.67 G/DL
- URIC ACID [2]: 1.5 mg/dL
- ABSOLUTE BASOPHIL [3]: 0 CELLS/uL
- ABSOLUTE EOSINOPHIL [3]: 104.67 CELLS/uL
- ABSOLUTE LYMPHOCYTE [3]: 19446 CELLS/uL
- ABSOLUTE MONOCYTE [3]: 531.33 CELLS/uL
- ABSOLUTE SEGMENTED NEUTROPHIL [3]: 1118 CELLS/uL
- BASOPHIL [3]: 0%
- EOSINOPHIL [3]: 0.67%
- ERYTHROCYTE COUNT [3]: 5.6 x10E6/uL
- HEMATOCRIT [3]: 34.37%
- HEMOGLOBIN [3]: 14 G/DL
- LEUKOCYTE COUNT [3]: 21.2 x10E3/uL
- LYMPHOCYTE [3]: 91.33%
- MEAN CORPUSCULAR HEMOGLOBIN [3]: 25.03 pg
- MEAN CORPUSCULAR HEMOGLOBIN CONCENTRATION [3]: 40.77 G/DL
- MEAN CORPUSCULAR VOLUME [3]: 61.33 fL
- MONOCYTE [3]: 2.33%
- NEUTROPHIL [3]: 5.67%
- NUCLEATED RED BLOOD CELLS [3]: 0 /100WBC
- PLATELET COUNT [3]: 1356.67 x10E3/uL
- ALANINE AMINOTRANSFERASE [3]: 58 u/L
- ALBUMIN [3]: 4.07 G/DL
- ALKALINE PHOSPHATASE [3]: 363 u/L
- ASPARTATE AMINOTRANSFERASE [3]: 88.33 u/L
- BLOOD UREA NITROGEN [3]: 19.33 mg/dL
- CARBON DIOXIDE [3]: 25 mmol/L
- CHLORIDE [3]: 100.33 MEQ/L
- CHOLESTEROL [3]: 60 mg/dL
- CREATINE PHOSPHOKINASE [3]: 520.33 u/L
- CREATININE [3]: 0.3 mg/dL
- GLUCOSE [3]: 225 mg/dL
- LACTATE DEHYDROGENASE [3]: 221.33 u/L
- LIPASE [3]: 8 u/L
- PHOSPHORUS [3]: 13.4 mg/dL
- POTASSIUM [3]: 5.31 MEQ/L
- SODIUM [3]: 143.57 MEQ/L
- TOTAL BILIRUBIN [3]: 0.2 mg/dL
- TOTAL PROTEIN [3]: 5.73 G/DL
- URIC ACID [3]: 1.9 mg/dL
